We go through 33 compounds from patent US6472418B1, “Non-peptide NK1 receptors antagonists” (Warner-Lambert Company, priority 1998, dated 2002).

The target in the experiment is T1, Human NK1 Receptor (Homo sapiens, UniProt P25103).
T1 construct: endogenous in cells; host or cells: Human lymphoma IM9 cells (whole cells)
T1 sequence (P25103 whole entry): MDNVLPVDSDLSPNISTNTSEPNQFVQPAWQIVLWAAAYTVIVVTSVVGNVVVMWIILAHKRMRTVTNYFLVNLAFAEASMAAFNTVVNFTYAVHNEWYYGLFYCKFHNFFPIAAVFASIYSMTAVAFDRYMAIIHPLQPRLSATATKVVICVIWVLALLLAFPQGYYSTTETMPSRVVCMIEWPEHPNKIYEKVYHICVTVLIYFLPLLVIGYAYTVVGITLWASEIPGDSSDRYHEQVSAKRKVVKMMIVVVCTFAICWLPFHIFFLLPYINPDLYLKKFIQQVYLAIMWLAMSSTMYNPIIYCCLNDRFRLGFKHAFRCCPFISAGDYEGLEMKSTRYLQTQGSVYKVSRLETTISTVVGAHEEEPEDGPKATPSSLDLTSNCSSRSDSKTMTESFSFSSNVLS
The experiment can be described thus: In Vitro Human NK1 Receptor Binding Assay ([125I]Bolton-Hunter substance P displacement, IM9 cells). Particulars: human NK1 receptor, IM9 cells, [125I]Bolton-Hunter substance P; read-out: IC50 (nM) hNK1. The procedure, abridged:
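Test compounds competed with 0.05-0.1 nM [125I]Bolton-Hunter substance P for binding to intact IM9 cells over 50 min at 21° C, pH 7.4 buffer with MnCl2 and peptidase inhibitors. […] [Sar9, Met(O2)11] substance P gave non-specific binding. Bound counts were measured after filtration and fitted iteratively.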
Turning to `CC(Cc1c[nH]c2ccccc12)(NCc1cc2ccccc2o1)C(=O)NC1(CO)CCCC1` (stereo not drawn) [compound 144, 2-[(Benzofuran-2-ylmethyl)-amino]-N-(1-hydroxymethyl-cyclopentyl)-3-(1H-indol-3-yl)-2-methyl-propionamide], the IC50 was above 10000 nM.

`CC(Cc1c[nH]c2ccccc12)(NCc1cc2ccccc2o1)C(=O)NCCc1cccnc1` (stereo not drawn) [compound 145, 2-[(Benzofuran-2-ylmethyl)-amino]-3-(1H-indol-3-yl)-2-methyl-N-(2-pyridin-3-yl-ethyl)-propionamide]: the IC50 came out at 1300 nM.

For the compound `CC(NC(=O)C(C)(Cc1c[nH]c2ccccc12)NCc1cc2ccccc2o1)C1=CCCO1` (stereo not drawn) [compound 146, 2-[(Benzofuran-2-ylmethyl)-amino]-N-[1-(4,5-dihydro-furan-2-yl)-ethyl]-3-(1H-indol-3-yl)-2-methyl-propionamide], the IC50 was determined as 3590 nM.

In the case of `CC(Cc1c[nH]c2ccccc12)(NCc1cc2ccccc2o1)C(=O)NCCN1CCNCC1` (stereo not drawn) [compound 147, 2-[(Benzofuran-2-ylmethyl)-amino]-3-(1H-indol-3-yl)-2-methyl-N-(2-piperazin-1-yl-ethyl)-propionamide], the IC50 is above 10000 nM.

Take `CC(Cc1c[nH]c2ccccc12)(NCc1cc2ccccc2o1)C(=O)NC1CCCc2ccccc21` (stereo not drawn) [compound 148, 2-[(Benzofuran-2-ylmethyl)-amino]-3-(1H-indol-3-yl)-2-methyl-N-(1,2,3,4-tetrahydro-naphthalen-1-yl)-propionamide]: the half-maximal inhibitory concentration (IC50) was above 10000 nM.

For the compound `COC1C=CC(CNC(=O)C(C)(Cc2c[nH]c3ccccc23)NCc2cc3ccccc3o2)(OC)O1` (stereo not drawn) [compound 149, 2-[(Benzofuran-2-ylmethyl)-amino]-N-(2,5-dimethoxy-2,5-dihydro-furan-2-ylmethyl)-3-(1H-indol-3-yl)-2-methyl-propionamide], the IC50 is above 10000 nM.

Consider `CC(CNC(=O)C(C)(Cc1c[nH]c2ccccc12)NCc1cc2ccccc2o1)c1ccccc1` (stereo not drawn) [compound 150, 2-[(Benzofuran-2-ylmethyl)-amino]-3-(1H-indol-3-yl)-2-methyl-N-(2-phenyl-propyl)-propionamide], for which the IC50 was 262 nM.

On to `CC(Cc1c[nH]c2ccccc12)(NCc1cc2ccccc2o1)C(=O)NCc1cnc2ccccc2c1` (stereo not drawn) [compound 151, 2-[(Benzofuran-2-ylmethyl)-amino]-3-(1H-indol-3-yl)-2-methyl-N-quinolin-3-ylmethyl-propionamide], for which the concentration for half-maximal inhibition (IC50) was 1210 nM.

As to `CC(Cc1c[nH]c2ccccc12)(NCc1cc2ccccc2o1)C(=O)NCC(CC(=O)O)c1ccccc1` (stereo not drawn) [compound 152, 4-[2-[(Benzofuran-2-ylmethyl)-amino]-3-(1H-indol-3-yl)-2-methyl-propionylamino]-3-phenyl-butyric acid], the IC50 was above 10000 nM.

On to `COc1cc(C(O)CNC(=O)C(C)(Cc2c[nH]c3ccccc23)NCc2cc3ccccc3o2)ccc1O` (stereo not drawn) [compound 153, 2-[(Benzofuran-2-ylmethyl)-amino]-N-[2-hydroxy-2-(4-hydroxy-3-methoxy-phenyl)-ethyl]-3-(1H-indol-3-yl)-2-methyl-propionamide], for which the half-maximal inhibitory concentration (IC50) stood at 3550 nM.

Turning to `CC(Cc1c[nH]c2ccccc12)(NCc1cc2ccccc2o1)C(=O)NCC1CCNC1` (stereo not drawn) [compound 154, 2-[(Benzofuran-2-ylmethyl)-amino]-3-(1H-indol-3-yl)-2-methyl-N-pyrrolidin-3-ylmethyl-propionamide], the IC50 is above 10000 nM.

As to `CC(Cc1c[nH]c2ccccc12)(NCc1cc2ccccc2o1)C(=O)NCCN1CCCC1` (stereo not drawn) [compound 155, 2-[(Benzofuran-2-ylmethyl)-amino]-3-(1H-indol-3-yl)-2-methyl-N-(2-pyrrolidin-1-yl-ethyl)-propionamide], the IC50 is above 10000 nM.

In the case of `CC(Cc1c[nH]c2ccccc12)(NCc1cc2ccccc2o1)C(=O)NCC1CCNCC1` (stereo not drawn) [compound 156, 2-[(Benzofuran-2-ylmethyl)-amino]-3-(1H-indol-3-yl)-2-methyl-N-piperidin-4-ylmethyl-propionamide], the half-maximal inhibitory concentration (IC50) was above 10000 nM.

In the case of `Cc1ccccc1CNC(=O)C(C)(Cc1c[nH]c2ccccc12)NCc1cc2ccccc2o1` (stereo not drawn) [compound 157, 2-[(Benzofuran-2-ylmethyl)-amino]-3-(1H-indol-3-yl)-2-methyl-N-(2-methyl-benzyl)-propionamide], the IC50 was determined as 455 nM.

`CC(Cc1c[nH]c2ccccc12)(NCc1cc2ccccc2o1)C(=O)NC1CCc2ccccc21` (stereo not drawn) [compound 158, 2-[(Benzofuran-2-ylmethyl)-amino]-N-indan-1-yl-3-(1H-indol-3-yl)-2-methyl-propionamide]: the concentration for half-maximal inhibition (IC50) was determined as 2570 nM.

Take `CC(Cc1c[nH]c2ccccc12)(NCc1cc2ccccc2o1)C(=O)NCC1(c2cccnc2)CCC1` (stereo not drawn) [compound 159, 2-[(Benzofuran-2-ylmethyl)-amino]-3-(1H-indol-3-yl)-2-methyl-N-(1-pyridin-3-yl-cyclobutylmethyl)-propionamide]: the IC50 came out at 3760 nM.

Turning to `CC(Cc1c[nH]c2ccccc12)(NCc1cc2ccccc2o1)C(=O)NC1(c2cccs2)CCCCC1` (stereo not drawn) [compound 160, 2-[(Benzofuran-2-ylmethyl)-amino]-3-(1H-indol-3-yl)-2-methyl-N-(1-thiophen-2-yl-cyclohexyl)-propionamide], the concentration for half-maximal inhibition (IC50) was above 10000 nM.

Take `CC(Cc1c[nH]c2ccccc12)(NCc1cc2ccccc2o1)C(=O)NCCc1ccc(O)c(O)c1` (stereo not drawn) [compound 161, 2-[(Benzofuran-2-ylmethyl)-amino]-N-[2-(3,4-dihydroxy-phenyl)-ethyl]-3-(1H-indol-3-yl)-2-methyl-propionamide]: the IC50 is above 10000 nM.

Take `CCC(NC(=O)C(C)(Cc1c[nH]c2ccccc12)NCc1cc2ccccc2o1)c1ccccc1` (stereo not drawn) [compound 162, 2-[(Benzofuran-2-ylmethyl)-amino]-3-(1H-indol-3-yl)-2-methyl-N-(1-phenyl-propyl)-propionamide]: the IC50 was 42 nM.

As for `CC(Cc1c[nH]c2ccccc12)(NCc1cc2ccccc2o1)C(=O)NCC(=O)c1ccccc1` (stereo not drawn) [compound 163, 2-[(Benzofuran-2-ylmethyl)-amino]-3-(1H-indol-3-yl)-2-methyl-N-(2-oxo-2-phenyl-ethyl)-propionamide], the IC50 came out at 166 nM.

As for `CC(Cc1c[nH]c2ccccc12)(NCc1cc2ccccc2o1)C(=O)NCC1CC2CCC1C2` (stereo not drawn) [compound 165, 2-[(Benzofuran-2-ylmethyl)-amino]-N-bicyclo[2.2.1]hept-2-ylmethyl-3-(1H-indol-3-yl)-2-methyl-propionamide], the IC50 is above 10000 nM.

Regarding `CC(Cc1c[nH]c2ccccc12)(NCc1cc2ccccc2o1)C(=O)NCc1cccc(F)c1` (stereo not drawn) [compound 166, 2-[(Benzofuran-2-ylmethyl)-amino]-N-(3-fluoro-benzyl)-3-(1H-indol-3-yl)-2-methyl-propionamide], the concentration for half-maximal inhibition (IC50) stood at 37 nM.

Consider `CC(Cc1c[nH]c2ccccc12)(NCc1cc2ccccc2o1)C(=O)NCc1ccc(F)c(F)c1` (stereo not drawn) [compound 167, 2-[(Benzofuran-2-ylmethyl)-amino]-N-(3,4-difluoro-benzyl)-3-(1H-indol-3-yl)-2-methyl-propionamide], for which the half-inhibitory concentration (IC50) came out at 29 nM.

As for `CC(Cc1c[nH]c2ccccc12)(NCc1cc2ccccc2o1)C(=O)NCc1ccc(F)cc1Cl` (stereo not drawn) [compound 168], the IC50 was 230 nM.

`Cc1cc(C)c(CNC(=O)C(C)(Cc2c[nH]c3ccccc23)NCc2cc3ccccc3o2)cn1` (stereo not drawn) [compound 169, 2-[(Benzofuran-2-ylmethyl)-amino]-N-(4,6-dimethyl-pyridin-3-ylmethyl)-3-(1H-indol-3-yl)-2-methyl-propionamide]: the IC50 worked out at 6020 nM.

Consider `CC(Cc1c[nH]c2ccccc12)(NCc1cc2ccccc2o1)C(=O)NCc1cc(Br)ccc1O` (stereo not drawn) [compound 170, 2-[(Benzofuran-2-ylmethyl)-amino]-N-(5-bromo-2-hydroxy-benzyl)-3-(1H-indol-3-yl)-2-methyl-propionamide], for which the half-inhibitory concentration (IC50) is 2380 nM.

`CC(Cc1c[nH]c2ccccc12)(NCc1cc2ccccc2o1)C(=O)NCc1ccc(C(=O)O)cc1` (stereo not drawn) [compound 171, 4-{[2-[(Benzofuran-2-ylmethyl)-amino]-3-(1H-indol-3-yl)-2-methyl-propionylamino]-methyl}-benzoic acid]: the IC50 was above 10000 nM.

In the case of `CC(Cc1c[nH]c2ccccc12)(NCc1cc2ccccc2o1)C(=O)NCCc1cccs1` (stereo not drawn) [compound 172, 2-[(Benzofuran-2-ylmethyl)-amino]-3-(1H-indol-3-yl)-2-methyl-N-(2-thiophen-2-yl-ethyl)-propionamide], the IC50 came out at 153 nM.

On to `CC(Cc1c[nH]c2ccccc12)(NCc1cc2ccccc2o1)C(=O)NCC(=O)N1CCOCC1` (stereo not drawn) [compound 173, 2-[(Benzofuran-2-ylmethyl)-amino]-3-(1H-indol-3-yl)-2-methyl-N-(2-morpholin-4-yl-2-oxo-ethyl)-propionamide], for which the half-inhibitory concentration (IC50) was above 10000 nM.

With `CC(Cc1c[nH]c2ccccc12)(NCc1cc2ccccc2o1)C(=O)NCc1ccc2c(c1)OCO2` (stereo not drawn) [compound 174, N-Benzo[1,3]dioxol-5-ylmethyl-2-[(benzofuran-2-ylmethyl)-amino]-3-(1H-indol-3-yl)-2-methyl-propionamide], the IC50 stood at 94 nM.

On to `CC(Cc1c[nH]c2ccccc12)(NCc1cc2ccccc2o1)C(=O)NCc1ccc(Cl)c(Cl)c1` (stereo not drawn) [compound 175, 2-[(Benzofuran-2-ylmethyl)-amino]-N-(3,4-dichloro-benzyl)-3-(1H-indol-3-yl)-2-methyl-propionamide], for which the IC50 amounted to 96 nM.

Regarding `COC(=O)C(Cc1c[nH]cn1)NC(=O)C(C)(Cc1c[nH]c2ccccc12)NCc1cc2ccccc2o1` (stereo not drawn) [compound 176, 2-[2-[(Benzofuran-2-ylmethyl)-amino]-3-(1H-indol-3-yl)-2-methyl-propionylamino]-3-(1H-imidazol-4-yl)-propionic acid methyl ester], the half-inhibitory concentration (IC50) is 1760 nM.

As for `CC(Cc1c[nH]c2ccccc12)(NCc1cc2ccccc2o1)C(=O)NCc1ccc(Cl)cc1F` (stereo not drawn) [compound 177, 2-[(Benzofuran-2-ylmethyl)-amino]-N-(4-chloro-2-fluoro-benzyl)-3-(1H-indol-3-yl)-2-methyl-propionamide], the IC50 was 444 nM.
